Consider 24 compounds from patent US20240051952A1, “HMOX1 INDUCERS” (Mitobridge Inc., priority 2019, published 2024).

The data set deals with Human Heme Oxygenase-1 (HMOX-1). Briefly: ELISA assay to measure human heme oxygenase-1 (HMOX-1) in HepG2 lysate. It is filed as cell-based. Conditions: for Maximum Fold induction: fold change of human HMOX1 protein levels relative to DMSO control, HepG2. Summed up: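 HepG2 cells lysed in PBS/0.5% Triton X-100/1 mM EDTA with protease inhibitors; lysate diluted 1:20. Sandwich ELISA: anti-HO-1 capture (8 μg/ml), biotinylated detection antibody (200 ng/ml), streptavidin-HRP, chemiluminescent read. Quantified against 12-point HO-1 standard curve from 20 ng/ml; incubations at 20 °C.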
(ELISA stands for enzyme-linked immunosorbent assay.)

As for `COCCNC(=O)c1ccc2c(c1)nc(Nc1nc3cccnc3o1)n2C` [Example 109, N-(2-methoxyethyl)-1-methyl-2-(oxazolo[5,4-b]pyridin-2-ylamino)-1H-benzo[d]imidazole-5-carboxamide], the “Maximum Fold induction” value stood at 26.
As to `Cn1c(Nc2nc3ccc(OC(F)F)cc3o2)nc2cc(C(=O)O)ccc21` [Example 62, 2-((6-(difluoromethoxy)benzo[d]oxazol-2-yl)amino)-1-methyl-1H-benzo[d]imidazole-5-carboxylic acid], the “Maximum Fold induction” value is given as 15-24.
The same measure, in the same setting: the same measure for `Cn1c(Nc2nc3ccc(C(F)(F)F)cc3o2)nc2cc(C(=O)NOCCO)ccc21` [Example 125, N-(2-hydroxyethoxy)-1-methyl-2-((6-(trifluoromethyl)benzo[d]oxazol-2-yl)amino)-1H-benzo[d]imidazole-5-carboxamide]: 32-59; for `Cn1c(Nc2nc3ccc(N4CCCC4)cc3o2)nc2cc(C(=O)NCCOCCO)ccc21` [Example 137, N-(2-(2-hydroxyethoxy)ethyl)-1-methyl-2-((6-(pyrrolidin-1-yl)benzo[d]oxazol-2-yl)amino)-1H-benzo[d]imidazole-5-carboxamide]: 24-70; for `Cn1c(Nc2nc3cc(F)ccc3[nH]2)nc2cc(C(=O)O)ccc21` [Example 73, 2-((5-fluoro-1H-benzo[d]imidazol-2-yl)amino)-1-methyl-1H-benzo[d]imidazole-5-carboxylic acid]: 8-12.
For `Cn1c(Nc2nc3ccc(F)cc3o2)nc2cc(C(=O)O)ccc21` [Example 68, 2-((6-fluorobenzo[d]oxazol-2-yl)amino)-1-methyl-1H-benzo[d]imidazole-5-carboxylic acid], the “Maximum Fold induction” value is recorded as 16-21.
Take `COCCONC(=O)c1ccc2c(c1)nc(Nc1nc3ccccc3o1)n2C` [Example 119, 2-(benzo[d]oxazol-2-ylamino)-N-(2-methoxyethoxy)-1-methyl-1H-benzo[d]imidazole-5-carboxamide]: the “Maximum Fold induction” value is 47-65.
As to `Cn1c(Nc2nc3ncccc3o2)nc2cc(C(=O)O)ccc21` [Example 111, 1-methyl-2-(oxazolo[4,5-b]pyridin-2-ylamino)-1H-benzo[d]imidazole-5-carboxylic acid], the “Maximum Fold induction” value worked out at 3.
For the compound `Cn1c(Nc2nc3ccc(C4CC4)cc3o2)nc2cc(C(=O)O)ccc21` [Example 115, 2-((6-cyclopropylbenzo[d]oxazol-2-yl)amino)-1-methyl-1H-benzo[d]imidazole-5-carboxylic acid], the “Maximum Fold induction” value worked out at 71.
For `COCCNC(=O)c1ccc2c(c1)nc(Nc1nc3c(s1)COCC3)n2C` [Example 11, 2-((6,7-dihydro-4H-pyrano[4,3-d]thiazol-2-yl)amino)-N-(2-methoxyethyl)-1-methyl-1H-benzo[d]imidazole-5-carboxamide], the “Maximum Fold induction” value is given as 5.
Take `Cn1c(Nc2nc3ccccc3o2)nc2cc(C(=O)O)ccc21` [Example 1h, 2-(benzo[d]oxazol-2-ylamino)-1-methyl-1H-benzo[d]imidazole-5-carboxylic acid]: the “Maximum Fold induction” value was 7-38.
For the compound `CS(=O)(=O)CCn1c(Nc2nc3ccc(OC(F)(F)F)cc3o2)nc2cc(C(=O)O)ccc21` [Example 89, 1-(2-(methylsulfonyl)ethyl)-2-((6-(trifluoromethoxy)benzo[d]oxazol-2-yl)amino)-1H-benzo[d]imidazole-5-carboxylic acid], the “Maximum Fold induction” value was 10.
For `Cn1c(Nc2nc3ccccc3o2)nc2cc(C(=O)NCCN3CCOCC3)ccc21` [Example 20, 2-(benzo[d]oxazol-2-ylamino)-1-methyl-N-(2-morpholinoethyl)-1H-benzo[d]imidazole-5-carboxamide], the “Maximum Fold induction” value is listed as 8.
For the compound `O=C(O)c1ccc2c(c1)nc(Nc1nc3ccc(OC(F)(F)F)cc3s1)n2C1CCOCC1` [Example 2d, 1-(tetrahydro-2H-pyran-4-yl)-2-((6-(trifluoromethoxy)benzo[d]thiazol-2-yl)amino)-1H-benzo[d]imidazole-5-carboxylic acid], the “Maximum Fold induction” value is reported as 10 (n = 2).
Still for that read-out and setting: under `COCCNC(=O)c1ccc2c(c1)nc(Nc1nc3ccc(F)cc3o1)n2C` [Example 69, 2-((6-fluorobenzo[d]oxazol-2-yl)amino)-N-(2-methoxyethyl)-1-methyl-1H-benzo[d]imidazole-5-carboxamide] stands 13-36; under `CN(C)CCONC(=O)c1ccc2c(c1)nc(Nc1nc3ccc(C(F)(F)F)cc3o1)n2C` [Example 122, N-(2-(dimethylamino)ethoxy)-1-methyl-2-((6-(trifluoromethyl)benzo[d]oxazol-2-yl)amino)-1H-benzo[d]imidazole-5-carboxamide], 51-67.
As for `COCCNC(=O)c1ccc2c(c1)nc(Nc1nc3c(s1)CCCC3)n2C` [Example 5, N-(2-methoxyethyl)-1-methyl-2-((4,5,6,7-tetrahydrobenzo[d]thiazol-2-yl)amino)-1H-benzo[d]imidazole-5-carboxamide], the “Maximum Fold induction” value is 7-12. Where the note is “human HMOX1 protein in HepG2 lysate, ELISA, * = average of 2 or more EC50 determinations, NA = Not Active”, this compound returned an EC50 of 1.3 µM.
Consider `CC(O)COCCNC(=O)c1ccc2c(c1)nc(Nc1nc3ccc(C(F)(F)F)cc3o1)n2C` (stereo not shown) [Example 38, N-(2-(2-hydroxypropoxy)ethyl)-1-methyl-2-((6-(trifluoromethyl)benzo[d]oxazol-2-yl)amino)-1H-benzo[d]imidazole-5-carboxamide], for which the “Maximum Fold induction” value worked out at 30.
Regarding `COCCNC(=O)c1ccc2c(c1)nc(Nc1nc3ncccc3o1)n2C` [Example 112, N-(2-methoxyethyl)-1-methyl-2-(oxazolo[4,5-b]pyridin-2-ylamino)-1H-benzo[d]imidazole-5-carboxamide], the “Maximum Fold induction” value stood at 15.
On to `CC(C)c1ccc2nc(Nc3nc4cc(C(=O)NCCO)ccc4n3C)oc2c1` [Example 61, N-(2-hydroxyethyl)-2-((6-isopropylbenzo[d]oxazol-2-yl)amino)-1-methyl-1H-benzo[d]imidazole-5-carboxamide], for which the “Maximum Fold induction” value is listed as 60.
For `COCCn1c(Nc2nc3ccc(OC(F)(F)F)cc3o2)nc2cc(C(=O)O)ccc21` [Example 77, 1-(2-methoxyethyl)-2-((6-(trifluoromethoxy)benzo[d]oxazol-2-yl)amino)-1H-benzo[d]imidazole-5-carboxylic acid], the “Maximum Fold induction” value is given as 27-28.
As to `Cn1c(Nc2nc3ccccc3o2)nc2cc(/C(=N/O)C(F)(F)F)ccc21` [Example 140, (Z)-1-(2-(benzo[d]oxazol-2-ylamino)-1-methyl-1H-benzo[d]imidazol-5-yl)-2,2,2-trifluoroethan-1-one oxime], the “Maximum Fold induction” value is recorded as 19.
In the case of `Cn1c(Nc2nc3cc(F)c(C(F)(F)F)cc3o2)nc2cc(C(=O)O)ccc21` [Example 107, 2-((5-fluoro-6-(trifluoromethyl)benzo[d]oxazol-2-yl)amino)-1-methyl-1H-benzo[d]imidazole-5-carboxylic acid], the “Maximum Fold induction” value amounted to 45.
In the case of `Cn1c(Nc2nc3ccc(C(F)(F)F)cc3o2)nc2cc(C(=O)NCC(O)CO)ccc21` (stereo not shown) [Example 39, N-(2,3-dihydroxypropyl)-1-methyl-2-((6-(trifluoromethyl)benzo[d]oxazol-2-yl)amino)-1H-benzo[d]imidazole-5-carboxamide], the “Maximum Fold induction” value is reported as 56-82.

Usually EC50 stands for the concentration that produces a half-maximal response. Low values mean higher potency in that assay, high ones lower potency in that assay.
